Test results taken from patent US20140235500A1, “HIGH THROUGHPUT INSTRUMENTATION TO SCREEN CELLS AND PARTICLES BASED ON THEIR MECHANICAL PROPERTIES” (The Regents of the University of California, priority 2011, published 2014).

What was measured:
HL60 cells = experiment: High throughput mechanical screening (HTMS): cell passage through porous membrane under applied pressure; format: cell-based, human; conditions: for cell deformability: FIG. 27
Text: An initial prototype device (see, e.g., FIGS. 9-16) was machined out of polymethylmethacrylate (McMaster Carr) in the format of a 96-well plate containing: a porous membrane sandwiched between a bottom, multiwell collection plate, and a top loading plate. A pressure chamber seals the device and interfaces with a compressed air tank (see, e.g., FIG. 17).
In the initial prototype device, we use track-etched, polycarbonate membranes with 5 μm pore size (Millipore). To minimize adhesion, surface treatment with 10 mg/mL bovine serum albumin was performed prior to the experiment. To load the device, cells were deposited on top of the porous membrane in each individual well. The optimal loading density of cells was established iteratively with detection: a loading density of ˜10^6 cells/mL was optimal given the estimated lower detection limit of 10^2 cells/mL using a flow cytometer.
Once the device was loaded, the pressure chamber lid was placed on top to create a pressure-tight seal, and tubing was connected to a tank of compressed air with 5% CO2 that was outfitted with a pressure gauge (0-30 psi, 0.2 psi resolution, Airgas). An electro-pneumatic regulator (0-20 psi output, Omega) enabled precise control of the magnitude and duration of applied pressure for sub-second periods of time via control through LabVIEW. Pressures between 5-10 psi were estimated to generate ˜kPa-scale stresses required to deform cells with elastic moduli in the kPa range.
After applying pressure to induce deformation of cells through the pores, the number of passaged cells was counted. We used a flow cytometer to count cells in the individual wells of a 96-well plate using scattered light (forward versus side scatter) as a signal (LSRII flow cytometer, BD Biosciences). An entire 96-well plate was counted within 15 minutes.
(§1) As shown in FIG. 27 the effect of various anti-cancer drugs (e.g., cytochalisin D, paclitaxel, daunorubicin, colchicine) can readily be detected using the HTMS systems described herein. […] Without being bound by a particular theory, it is believed that that the changes in mechanical properties are produced by the action of the drugs on cytoskeletal elements (e.g., actin filaments). Similarly, as shown in FIG. 28 the HTMS measurements made herein can be used to detect dose-response effects of various agents (e.g., anti-cancer drugs) on cells. In this experiment, HL60 cells were treated with 10.0 μM colchicine. Without being bound by a particular theory it is believed that colchicine perturbs microtubules at low concentrations and stabilizes F-actin at high concentrations.

[1] = test system: human promyelocytic leukemia (HL60) cells; experiment: Flow of cells through constricted microfluidic channels (deformation time); format: cell-based; conditions: HL60 cells treated with drug to perturb actin network; narrow constrictions
Text: To dissect the contributions of nuclear physical properties to whole cell deformability, human promyelocytic leukemia (HL60) cells provide a convenient model system. These cells can be readily differentiated into neutrophil-type cells in vitro. During this process of granulopoiesis, the cell nucleus undergoes major changes in morphology as it transitions from an ovoid to an irregular, multi-lobed structure.
In addition to these induced changes in nuclear morphology, cytoskeletal protein expression is also altered. Levels of actin increase during differentiation, and cortical actin is implicated in the resistance of these cells to out-of-plane deformations. To determine the contributions of actin to cellular deformation, cells were treated with a drug (cytochalasin B) to perturb their actin network. […] One determinant of nucleus shape stability is the intermediate filament type protein, lamin A. This protein is a major constituent of the meshwork underlying the nuclear envelope, and its expression levels are directly linked to nuclear mechanical properties.

[2] = test system: adherent murine mammary carcinoma cells (67NR); experiment: HTMS measurement on adherent carcinoma cells; format: cell-based; conditions: 67NR cells; FIG. 29
Text: FIG. 29 illustrates the effect of various drugs on adherent murine mammary carcinoma cells (67NR).
as §1

OVCAR5 cells = experiment: HTMS measurement of drug treatment on ovarian cancer cells; format: cell-based; conditions: OVCAR5-CIS+ cells treated for <1 day; 0.4 psi for 35 s; FIG. 32
Text: FIG. 32 illustrates the use of HTMS measurements to detect the effects of drug treatment on cancer cells. Data: 0.4 psi for 35 s.
In addition, the HTMS systems described herein can be used to monitor the progression of drug treatments. Ovarian cancer cells: SKOV3 and OVCAR5 are cisplatin sensitive, while SKOV3-CISR and OVCAR5-CISR are cisplatin resistant.

SMILES: CC1=C(/C=C/C(C)=C/C=C/C(C)=C/C(=O)O)C(C)(C)CCC1 [ATRA]
- pressure dependence of cell passage versus HL60 cells (HL60 cells; neutrophil-type (ATRA-treated) cells, FIG. 25): different pressure dependence

SMILES: C=C1[C@@H](C)[C@H]2[C@H](Cc3ccccc3)NC(=O)[C@]23[C@H](OC(C)=O)/C=C/[C@@](C)(O)C(=O)[C@@H](C)C/C=C/[C@H]3[C@@H]1O [cytochalasin D]
- cell deformability (HL60 cells; HL60 cells, 2.0 μM): increase cell deformability

SMILES: C=C1[C@@H](C)[C@H]2[C@H](Cc3ccccc3)NC(=O)[C@]23OC(=O)/C=C/[C@H](O)CCC[C@@H](C)C/C=C/[C@H]3[C@@H]1O [cytochalasin B]
- difference in cellular deformation between treated and non-treated controls [1]: no detectable difference

SMILES: COc1cc2c(c(OC)c1OC)-c1ccc(OC)c(=O)cc1[C@@H](NC(C)=O)CC2 [colchicine]
- cell deformability (HL60 cells; HL60 cells, 10.0 μM): decrease the deformability
- cell stiffness (dose response) (HL60 cells; HL60 cells, low drug concentration, FIG. 28): increased cell stiffness
- dose response effects on cell mechanical properties [2]: Dose response effects of colchicine are also observed

SMILES: COc1cccc2c1C(=O)c1c(O)c3c(c(O)c1C2=O)C[C@@](O)(C(C)=O)C[C@@H]3O[C@H]1C[C@H](N)[C@H](O)[C@H](C)O1 [dauorubicin]
- cell deformability (HL60 cells; HL60 cells, 1.0 μM): decrease the deformability

SMILES: N.N.[Cl][Pt][Cl] [cisplatin]
- difference in HTMS measurement compared with OVCAR5 cells (OVCAR5 cells): no apparent difference

SMILES: CC(=O)O[C@H]1C(=O)[C@@]2(C)[C@H]([C@H](OC(=O)c3ccccc3)[C@]3(O)C[C@H](OC(=O)[C@H](O)[C@@H](NC(=O)c4ccccc4)c4ccccc4)C(C)=C1C3(C)C)[C@]1(OC(C)=O)CO[C@@H]1C[C@@H]2O [paclitaxel]
- cell deformability (HL60 cells; HL60 cells, 1.5 μM): increase cell deformability
